Consider 24 compounds from PubChem BioAssay (NCI).

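Method: 48-hour compound exposure of cells in 96-well plates, five concentrations, linear interpolation of endpoints. Definition used: TGI = concentration required for complete inhibition of growth.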

Test systems include CAKI-1 renal; CCRF-CEM leukemia; HCC-2998 colon; HOP-62 NSCLC; K-562 leukemia; SK-MEL-2 melanoma; SN12C renal; UACC-257 melanoma; HS 578T breast; NCI/ADR-RES ovarian.
Common to all, as to assay: inhibition of tumour cell growth, NCI panel, 48 h

Take `C[C@H](CCC1SC1(C)C)C1CCC2(C)C3=C(CC[C@]12C)[C@@]1(C)CC[C@H](O)C(C)(C)C1CC3` (stereo partly drawn): the TGI in the assay on CAKI-1 renal, in the assay with CCRF-CEM leukemia, in the assay on HCC-2998 colon, in the assay on HOP-62 NSCLC, in the assay on K-562 leukemia and in the assay with SK-MEL-2 melanoma was more than 100 µM each time. Also, the TGI with SN12C renal and in the assay with UACC-257 melanoma was more than 100 µM throughout.

Take `C[C@@H]1CC(=O)C[C@@H]2CC[C@H]3[C@@H]4CC[C@H](OC(=O)c5cccc6cc7ccccc7nc56)[C@H]4CC[C@@H]3[C@H]21`: the TGI was 33.7 µM with CAKI-1 renal; 52.3 µM with HOP-62 NSCLC; more than 100 µM in the assay with HS 578T breast; 38 µM with K-562 leukemia; 55.1 µM in the assay with NCI/ADR-RES ovarian; 38 µM in the assay with SK-MEL-2 melanoma. The TGI turned out to be 33.1 µM in the assay with SN12C renal and 30.8 µM in the assay on UACC-257 melanoma.

Consider `C/C(N=NS(=O)(=O)c1ccc([N+](=O)[O-])cc1)=C1\C=CC=CN1O`, for which the TGI in the assay on CAKI-1 renal, in the assay on CCRF-CEM leukemia, with HCC-2998 colon, in the assay on HOP-62 NSCLC, in the assay on K-562 leukemia and in the assay with SN12C renal was more than 100 µM in each case. The compound further registered a TGI in the assay on UACC-257 melanoma of more than 100 µM.

Take `NC(=S)N1N=C2c3ccccc3CC[C@H]2[C@@H]1c1ccc(Cl)cc1`: the TGI is more than 100 µM with CCRF-CEM leukemia; more than 100 µM with HCC-2998 colon; more than 100 µM in the assay on HOP-62 NSCLC; 82.5 µM in the assay with K-562 leukemia; 61.1 µM with SK-MEL-2 melanoma; more than 100 µM in the assay on SN12C renal. The compound also came in with a TGI in the assay on UACC-257 melanoma of 95 µM.

As to `C=C1C(=O)O[C@H]2C[C@@H]1[C@@H](O)[C@H](O)[C@@H](C)CCCC(C)=CCC[C@@]2(C)O`, the TGI in the assay with CAKI-1 renal was 22.3 µM; with CCRF-CEM leukemia, more than 100 µM; in the assay on HCC-2998 colon, 60.5 µM; with HOP-62 NSCLC it was more than 100 µM; in the assay with HS 578T breast, 43.9 µM; in the assay with K-562 leukemia, more than 100 µM. For the same compound, the TGI with SK-MEL-2 melanoma was 41.2 µM; in the assay on SN12C renal, 72.3 µM; in the assay on UACC-257 melanoma it was 36.4 µM.

Regarding `Cc1cc2nc3c(C#N)c4c(c(-c5ccc(Cl)cc5)n3c2cc1C)CCC4`, the TGI with CAKI-1 renal is 42.9 µM; in the assay on CCRF-CEM leukemia, 70.7 µM; in the assay with HOP-62 NSCLC, 46.2 µM; in the assay on HS 578T breast, 47.9 µM; in the assay on K-562 leukemia it was 53.6 µM; with NCI/ADR-RES ovarian, more than 100 µM. For the same compound, the TGI in the assay on SK-MEL-2 melanoma stood at 36 µM; in the assay on SN12C renal it was 75.4 µM; with UACC-257 melanoma it was 41.4 µM.

On to `Cn1cc(C(=O)c2ccccc2)cc(C(=O)c2ccccc2)c1=O`, for which the TGI in the assay on CAKI-1 renal, in the assay on CCRF-CEM leukemia, in the assay on HCC-2998 colon, in the assay with HOP-62 NSCLC, with K-562 leukemia and in the assay on SK-MEL-2 melanoma was more than 100 µM throughout. Further, the TGI in the assay on SN12C renal and in the assay with UACC-257 melanoma was more than 100 µM each time.

Turning to `CC(=O)OC1[C@H](OC(C)=O)C2=C(C)[C@@H](OC(C)=O)C[C@@]2(C(C)(C)O)[C@@H](OC(C)=O)[C@H]2[C@@]1(C)[C@@H](OC(C)=O)CC(OC(C)=O)[C@]21CO1` (stereo partly drawn), the TGI with CAKI-1 renal, in the assay on CCRF-CEM leukemia, with HOP-62 NSCLC, with HS 578T breast, with K-562 leukemia and in the assay on SK-MEL-2 melanoma was more than 100 µM each time. Moreover, the TGI with SN12C renal and in the assay on UACC-257 melanoma was more than 100 µM each time.

As to `CCn1c(CCl)nc2c1C(=O)c1ccccc1C2=O`, the TGI with HCC-2998 colon is 2.9 µM; in the assay on HOP-62 NSCLC, 4.95 µM; in the assay with HS 578T breast it was 6.24 µM; in the assay with K-562 leukemia, more than 100 µM; in the assay on NCI/ADR-RES ovarian, 6.5 µM; in the assay with SN12C renal it was 2.97 µM. The TGI with UACC-257 melanoma turned out to be 3.36 µM.

For the compound `O=C1CN(c2cccc(Cl)c2)C(=O)CN1NCNN1CC(=O)N(c2cccc(Cl)c2)CC1=O`, the TGI with CAKI-1 renal, with CCRF-CEM leukemia, in the assay on HCC-2998 colon, with HOP-62 NSCLC, in the assay on HS 578T breast and in the assay with SN12C renal was more than 100 µM each time. This compound also yielded a TGI in the assay on UACC-257 melanoma of more than 100 µM.

In the case of `CC(C)(NC(=O)OCc1ccccc1)C(=O)OC(=O)C(C)(C)NC(=O)OCc1ccccc1`, the TGI in the assay with CAKI-1 renal, in the assay with CCRF-CEM leukemia, with HOP-62 NSCLC, in the assay on HS 578T breast, in the assay on K-562 leukemia and in the assay with NCI/ADR-RES ovarian was more than 100 µM throughout. Also, the TGI in the assay with SK-MEL-2 melanoma and in the assay with SN12C renal was more than 100 µM throughout.

For the compound `CNc1ncnc2c1nc(NC1CCCC1)n2C1OC(CO)C(O)C1O` (stereo not drawn), the TGI in the assay on CAKI-1 renal, in the assay on HCC-2998 colon, with HOP-62 NSCLC, with NCI/ADR-RES ovarian, in the assay with SK-MEL-2 melanoma and in the assay on SN12C renal was more than 100 µM throughout.

Turning to `C#CCN(Cc1ccc2nc(-c3ccccc3)c(N)nc2c1)c1cc(OC)c(OC)c(OC)c1`, the TGI with CCRF-CEM leukemia is 44.8 µM; in the assay with HCC-2998 colon, more than 100 µM; in the assay on HOP-62 NSCLC, more than 100 µM; in the assay with K-562 leukemia, more than 100 µM; in the assay on SK-MEL-2 melanoma, 64.8 µM; with SN12C renal, more than 100 µM.

`O=c1[nH]cnc2c(COCCO)c[nH]c12`: the TGI in the assay on CAKI-1 renal, in the assay on CCRF-CEM leukemia, with HOP-62 NSCLC, in the assay with K-562 leukemia, with SK-MEL-2 melanoma and in the assay on SN12C renal was more than 100 µM throughout. Moreover, the TGI in the assay with UACC-257 melanoma was more than 100 µM.

As for `Cc1nc2cc(Nc3ccccc3C(=O)O)ccc2s1`, the TGI in the assay with CAKI-1 renal, in the assay on CCRF-CEM leukemia, with HCC-2998 colon, in the assay on HOP-62 NSCLC, in the assay on K-562 leukemia and in the assay with SK-MEL-2 melanoma was more than 100 µM throughout. Besides, in the assay on SN12C renal, the TGI was more than 100 µM.

For `CCn1c2ccccc2c2c(-c3ccccc3)cc3c(c21)C(=O)N(c1ccccc1)C3=O`, the TGI in the assay on CAKI-1 renal, in the assay with CCRF-CEM leukemia, with HCC-2998 colon, with K-562 leukemia, with SK-MEL-2 melanoma and in the assay on SN12C renal was more than 100 µM each time. The same compound came in with a TGI in the assay with UACC-257 melanoma of more than 100 µM.

On to `COc1nc2ccc(COc3ccc(C(=O)O)cc3)cc2nc1OC`, for which the TGI in the assay on CAKI-1 renal was more than 100 µM; in the assay on CCRF-CEM leukemia, 97.4 µM; in the assay on HCC-2998 colon, more than 100 µM; in the assay on HOP-62 NSCLC, more than 100 µM; with K-562 leukemia it was more than 100 µM; with NCI/ADR-RES ovarian, more than 100 µM. Further, the TGI with SK-MEL-2 melanoma, with SN12C renal and with UACC-257 melanoma was more than 100 µM throughout.

On to `C/C(=N\Nc1nc2ccccc2s1)c1cc2ccccc2cn1`, for which the TGI was 17.6 µM in the assay with CAKI-1 renal; 8.04 µM in the assay with CCRF-CEM leukemia; 27.2 µM with HCC-2998 colon; 41.7 µM in the assay on HOP-62 NSCLC; 42 µM in the assay on NCI/ADR-RES ovarian; more than 100 µM with SK-MEL-2 melanoma. The TGI in the assay on SN12C renal was 30.8 µM; in the assay with UACC-257 melanoma, 57.8 µM.

For the compound `COc1cc(C(C)O)c[n+](CCC2CNc3ccccc32)c1` (stereo not drawn), the TGI in the assay with CAKI-1 renal, in the assay with CCRF-CEM leukemia, with HCC-2998 colon, in the assay with HOP-62 NSCLC, with K-562 leukemia and in the assay with SK-MEL-2 melanoma was more than 100 µM in each case. In addition, the TGI with SN12C renal and in the assay on UACC-257 melanoma was more than 100 µM each time.

Consider `COc1cc(-c2c3c(cc4c2OCO4)[C@@H](Nc2ccc(-c4ccc(-c5ccc(N[C@@H]6c7cc8c(cc7C(c7cc(OC)c(O)c(OC)c7)[C@H]7C(=O)OC[C@H]67)OCO8)cc5)cc4)cc2)[C@H]2COC(=O)[C@@H]2C3)cc(OC)c1O` (stereo partly drawn), for which the TGI was 8.8 µM in the assay with CAKI-1 renal; more than 100 µM in the assay with CCRF-CEM leukemia; 8.81 µM in the assay with HOP-62 NSCLC; more than 100 µM in the assay on HS 578T breast; 5.92 µM with NCI/ADR-RES ovarian; 24.4 µM in the assay on SN12C renal. In addition, the TGI with UACC-257 melanoma came out at 80.4 µM.

With `CC1=C(C)CC2(C=C(C(C)(C)C)C(=O)C(C(C)(C)C)=C2)SC1`, the TGI is 54.9 µM in the assay on CAKI-1 renal; 51 µM in the assay with CCRF-CEM leukemia; 37.9 µM in the assay with HOP-62 NSCLC; 36.8 µM in the assay on HS 578T breast; more than 100 µM with K-562 leukemia; 39.4 µM in the assay on NCI/ADR-RES ovarian. Moreover, the TGI in the assay with SK-MEL-2 melanoma is 26 µM; in the assay on SN12C renal, 33.2 µM; in the assay with UACC-257 melanoma, more than 100 µM.

Consider `[N-]=[N+]=CC(=O)OCCCCl`, for which the TGI in the assay with CAKI-1 renal, in the assay on CCRF-CEM leukemia, in the assay on HCC-2998 colon, in the assay on HOP-62 NSCLC, with SK-MEL-2 melanoma and in the assay with SN12C renal was more than 100 µM in each case. This compound came in with a TGI with UACC-257 melanoma of more than 100 µM.

Consider `CN(CCc1ccccn1)C(=S)N/N=C(\c1ccccc1)c1ccccn1`, for which the TGI in the assay on CAKI-1 renal was 5.3 µM; with CCRF-CEM leukemia, more than 100 µM; in the assay with HCC-2998 colon it was 5.39 µM; with HOP-62 NSCLC, 7.95 µM; in the assay with HS 578T breast, more than 26.4 µM; with K-562 leukemia, more than 100 µM. In addition, the TGI came to 4.35 µM with SK-MEL-2 melanoma, 15 µM with SN12C renal and 1.94 µM with UACC-257 melanoma.

As to `C=C(Cl)C(Cl)(CCl)CCC(Br)C(C)(C)Br` (stereo not drawn), the TGI with CAKI-1 renal, in the assay with CCRF-CEM leukemia, in the assay on HCC-2998 colon, in the assay with HOP-62 NSCLC, with K-562 leukemia and with SK-MEL-2 melanoma was more than 10 µM each time. The compound further displayed a TGI with SN12C renal of more than 10 µM.
